# Source: PubChem BioAssay (NCI)
# Several values for one entry are separate records, joined by “and”; a condition that tells them apart may be missing. Equal values may be shown once.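 A five-concentration, 48-hour dose response in 96-well plates underlies each endpoint, interpolated linearly between surrounding concentrations. Abbreviation: GI50, concentration required for 50% inhibition of growth. Definition used: TGI = concentration required for complete inhibition of growth.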
# Tests used:
# Assay in all cases: growth of human tumour cells (NCI), 48 h
# [1] = test system: HOP-92 NSCLC
# [2] = test system: HT29 colon
# [3] = test system: IGROV1 ovarian
# [4] = test system: K-562 leukemia
# [5] = test system: SF-539 CNS
# [6] = test system: SK-MEL-5 melanoma
# [7] = test system: SNB-75 CNS
# [8] = test system: T-47D breast
SMILES,GI50 [1],TGI [1],GI50 [2],TGI [2],GI50 [3],TGI [3],GI50 [4],TGI [4],GI50 [5],TGI [5],GI50 [6] [nM],TGI [6] [µM],GI50 [7],TGI [7],GI50 [8],TGI [8]
CCS(=O)(=O)c1ccc(OC)c(Nc2ncc(-c3cccc(-c4ccccc4F)c3)o2)c1,3.16 µM,20.7 µM,15 µM,> 25 µM,6.1 µM,20.7 µM,5.75 µM,> 25 µM,7.81 µM,> 25 µM,> 14600,> 25,4.77 µM,24.3 µM,6450 nM,> 25 µM
Cc1oncc1C(=O)Nc1ccc(C(F)(F)F)cc1,6.17 µM,46 µM,66.3 µM,> 100 µM,26.7 µM,> 100 µM,12.1 µM,> 100 µM,60.3 µM,> 100 µM,29300,> 100,23.5 µM,> 100 µM,94000 nM,> 100 µM
Clc1cccc(Cn2cc(Cc3cn(Cc4cccc(Cl)c4)c4ccccc34)c3ccccc32)c1,22.5 µM,> 100 µM,> 100 µM,> 100 µM,32 µM,> 100 µM,> 100 µM,> 100 µM,> 100 µM,> 100 µM,> 100000,> 100,> 100 µM,> 100 µM,> 100000 nM,> 100 µM
C[C@@]12CCC[C@@](C)(C(=O)O)C1CC[C@]13C=C(CO)[C@](O)(CCC12)C3 (stereo partly specified),> 100 µM,> 100 µM,> 100 µM,> 100 µM,> 100 µM,> 100 µM,> 100 µM,> 100 µM,> 100 µM,> 100 µM,> 100000,> 100,> 100 µM,> 100 µM,> 100000 nM,> 100 µM
CNC(=O)c1cc(Oc2ccc3nc(NC(=O)c4cc(C(F)(F)F)cc(C(F)(F)F)c4)sc3c2)ccn1,1.68 µM,7.21 µM,3.85 µM,16.8 µM,4.26 µM,27 µM,3.53 µM,> 100 µM,3.14 µM,14.8 µM,1680,3.63,3.13 µM,14.8 µM,3040 nM,9.17 µM
COc1cc2c3c(n(CCCN=[N+]=[N-])c(=O)c2cc1OC)-c1ccc(N)cc1C3=O,0.163 µM,0.86 µM,0.133 µM,0.929 µM,0.153 µM,0.637 µM,0.177 µM,,0.0919 µM,0.325 µM,78.4,0.223,0.126 µM,0.69 µM,98.8 nM,0.76 µM
S=c1cn[nH]c2ccc(Br)cc12,,> 100 µM,,> 100 µM,,> 100 µM,,> 100 µM,,> 100 µM,,> 100,,> 100 µM,,> 100 µM
O=C(Nc1cccc(-n2cc(-c3ccncc3)c(-c3cc(O)cc(Cl)c3)n2)c1)Nc1ccc(Cl)c(Cl)c1,,,1.92 µM,3.9 µM,2.86 µM,9.23 µM,2.56 µM,> 100 µM,1.44 µM,3.27 µM,1620,3.04,1.38 µM,4.82 µM,2390 nM,6.17 µM
CC(/C=C/C=C/C=C/C=C/C=C/C(O)=C1/C(=O)C(CCC(=O)O)N(C)C1=O)=C\C(C)C(OC1CC(O)C(O)C(C)O1)C(C)C (stereo unspecified),,8.66 µM,,14 µM,,4.48 µM,,15.6 µM,,6.3 µM,,3.85,,22.8 µM,,
S=C(Nc1ccc(-c2nc3ccccc3s2)cc1)Nc1ccccn1,16.7 µM,64.1 µM,28.3 µM,> 80.4 µM,29.8 µM,> 78.1 µM,27.6 µM,> 100 µM,37.8 µM,> 100 µM,17200,36.2,12 µM,> 51.2 µM,23600 nM,> 95.5 µM
O=C(/C=C/c1ccccc1Cl)c1ccc(O)cc1,6.75 µM,23.7 µM,4.72 µM,17.4 µM,2.25 µM,5.25 µM,3.12 µM,> 100 µM,5.22 µM,12.2 µM,9570,23.4,10.6 µM,24.5 µM,6380 nM,25.9 µM
CCCCN(CCCC)c1cc(C(=O)CCCCCN)c2ccccc2n1,2.51 µM,6.32 µM,2 µM,3.57 µM,,,2.47 µM,5 µM,1.95 µM,3.41 µM,1580,2.92,1.71 µM,3.21 µM,,
CCN(CC)CCC(CNc1c2ccc([N+](=O)[O-])cc2nc2cc(OC)c(OC)cc12)c1ccccc1 (stereo unspecified),0.258 µM and 0.0809 µM,0.85 µM and 0.404 µM,0.0405 µM and 0.0289 µM,0.239 µM and 0.1 µM,0.405 µM and 0.29 µM,1.66 µM and 1.02 µM,0.142 µM and 0.146 µM,1.25 µM and 3.85 µM,0.38 µM and 0.423 µM,1.46 µM and 1.64 µM,445,1.47,0.33 µM and 0.673 µM,1.62 µM and 2.15 µM,822 nM and 541 nM,2.97 µM and 2.61 µM
Nc1cccc(-c2nc3sccn3c2-c2ccnc(NCCCNS(=O)(=O)c3ccc(C(F)(F)F)cc3)n2)c1,11.4 µM,83.5 µM,2.85 µM,13.7 µM,3.75 µM,23.4 µM,2.77 µM,> 100 µM,6.66 µM,29.6 µM,2200,5.2,1.83 µM,23.1 µM,1370 nM,5.18 µM
COc1ccc(C2=C(Br)C(=O)OC2)cc1Cl,45.2 µM,> 100 µM,48.4 µM,> 100 µM,45.9 µM,> 100 µM,33.7 µM,> 86.2 µM,15.2 µM,39.8 µM,29100,> 100,55.8 µM,> 100 µM,1930 nM,35.5 µM
